Patent publication EP4799701A2, “PYRIMID-2-YL-PYRAZOLE COMPOUNDS AS IRAK INHIBITORS” (Rigel Pharmaceuticals, Inc., priority 2022, dated 2023)
Where “and” joins values, the source holds several entries; their conditions need not be identical. Equal values may be shown once. Where a name gives a salt, the structure may show the parent alone.

Legend:
[1] = Rat brain homogenate binding, equilibrium dialysis (RED); assay type: in vitro ADME; conditions: two runs; brain homogenate 1 brain /3 buffer, drug 5 µM; 5 µM
Procedure: Brain and plasma drug binding were performed by equilibrium dialysis using the Rapid Equilibrium Dialysis (RED) device. Briefly, 300 µL of plasma or brain homogenate (1 brain /3 buffer) containing drug (5 µM) was equilibrated (4-18 h) against 500 µL of buffered saline. After incubation, the concentration of drug in plasma/brain homogenate and buffer was determined by LC-MS/MS.
Two runs of rat brain homogenate binding with I-1 compared to Comparison-1. I-1 is approximately 10-fold more free in rat brain than Comparison-1.

TLR4-induced IL-23 = assay: LPS induced IL23p19 in THP-1 cells (IFNγ primed), IL-23p19 sandwich ELISA; assay type: cell-based, human; conditions: THP-1 cells primed with IFNγ, 1 µg/mL LPS, 18 hours; read-out: IL23-p19 ELISA, THP1-IFNy, LPS, 10pt EC50
From the text: LPS induced IL23p19 in THP-1 cells (with IFNy primed) Assay
THP-1 Cells (ATCC, Cat# TIB-202), Dimethyl Sulfoxide (DMSO) (Sigma-Aldrich, Cat# D2650), RPMI 1640 (Cellgro, Cat# 10-040-CM), Fetal Bovine Serum (Sigma, Cat# F4135), Albumin From Bovine Serum (BSA) (Sigma-Aldrich, Cat#A7906), LPS (Serotype K-235, Sigma, Product Number L 2143), IFNγ (Peprotech, Cat# 300-02), Capture antibody: Human IL-23p19 ELISA (e-Bioscience, Cat. # 14-7238-85), Detection antibody: Primary Mouse Biotinylated anti-human IL-12(p40/p70) (e-Bioscience, Cat. # 13-7129-85), Secondary HRP-conjugated Streptavidin (R&D Systems, Cat#DY998), 1x PBST Washing Buffer (PBS-Tween tablet) (VWR International, Cat#80058-558), ELISA Blocking Buffer (PBS with 1% BSA), ELISA Dilution Buffer (PBS with 1% BSA), 384 Well Flat-Bottom, MaxiSorp Black Immuno Plates (Thermo Scientific, Cat# 12-565-346), 384 Well Flat-Bottom, White Tissue Culture Plates (Thermo Scientific, Cat# 12-565-343), Super Signal ELISA Pico Chemiluminescent Substrate (Thermo Scientific, Cat#37070), Cell Titer Glo reagent (Promega, Cat#G7573), Positive control, IKK2VI inhibitor (Calbiochem, Cat#401483), AquaMax 4000 plate washer (Molecular Devices), Luminometer, Wallac Victor2 1420 Multilabel Counter.
On day 1, 50K/well THP-1 cells were seeded and primed with IFNγ (50ng/mL) in 384-well plates for about 18 hours in RPMI media with 10%FBS. On day 2, the compound was serially diluted in DMSO from 5 mM in 3-fold dilutions, and then diluted 1:125 in RPMI media with 10%FBS. […] IL-23p19 protein in 70 µL/well of supernatant was measured by sandwich ELISA, and 25 µl/well Cell Titer Glo reagent was added to the remaining cells to measure compound toxicity.
Maxisorp immuno ELISA plates were pre-coated with 25 µL/well of anti-IL-23p19 capture antibody (2.5ug/mL) in PBS overnight at room temperature. […] The plates were read with a luminometer, and the chemiluminescence values were entered into Athena (Rigel) for curve fitting, EC50 calculation, and database storage. […]

rat brain homogenate binding (free drug) [1] | EC50 (TLR4-induced IL-23) | SMILES
0.102% and 0.114% | – | CCO[C@H]1CC[C@H](n2cc(NC(=O)c3csc(-c4cn[nH]c4)n3)c(-c3nc(F)ccc3F)n2)CC1 [Comparison-1, reference compound]
– | 54.4 nM | CCO[C@H]1CC[C@H](n2cc(NC(=O)c3csc(-c4cnn(COP(=O)(O)O)c4)n3)c(-c3ncccn3)n2)CC1 [Compound I-3, sodium (4-(4-((1-((1r,4r)-4-ethoxycyclohexyl)-3-(pyrimidin-2-yl)-1H-pyrazol-4-yl)carbamoyl)thiazol-2-yl)-1H-pyrazol-1-yl)methyl phosphate]
– | 2.5 nM | CCO[C@H]1CC[C@H](n2cc(NC(=O)c3csc(-c4cn[nH]c4)n3)c(-c3ncccn3)n2)CC1 [Compound I-4, N-(1-((1r,4r)-4-ethoxycyclohexyl)-3-(pyrimidin-2-yl)-1H-pyrazol-4-yl)-2-(1H-pyrazol-4-yl)thiazole-4-carboxamide tartaric acid salt]
